We go through four compounds from patent US20230046947A1, “REACTIVE CONJUGATES” (Debiopharm Research & Manufacturing S.A., priority 2019, published 2023).

What is called IC50 is the concentration that gives 50% inhibition.

In the experiment the target is T1, Fc region of trastuzumab (Homo sapiens, UniProt P01857).
T1 construct: made in house; host or cells: recombinant CHO cell lines
The experiment can be described thus: Competitive FP binding assay against Fc-III-FAM. To be noted: for binding to the Fc region of trastuzumab (in words): competitive FP against Fc-III-FAM. As for the experimental part: The competitive FP measurements were performed on SpectraMax Paradigm Multi-Mode Detection Platform (Molecular Devices) in flat-bottom 384-well Corning microplates (Merck KGaA), using excitation and emission wavelengths of 485 nm and 535 nm, respectively. The acquisition time was 700 milliseconds and the read height was 1 mm. All reagents used in the assay were diluted in PBS containing 0.05% Tween 20.
The mixture was incubated at 27° C. for 15 min and the fluorescence signal was red on a Spectramax Paradigm. All sample preparations were done in PBS pH 7.4 or 7.0 containing 0.05% Tween. Each experiment was performed in triplicate.

Where a SMILES comes first, the peptide text is derived from it. Bridges are numbered along the chain shown (N, C = ends). Where no end group is shown, it is not given here. [ ]: non-standard residue; d: D form. PEG20 = NCCOCCOCCOCCOCCOCCOCCOCCOCCOCCOCCOCCOCCOCCOCCOCCOCCOCCOCCOCCOCCC(=O)O

With `CC(C)C[C@@H]1NC(=O)[C@H](Cc2c[nH]cn2)NC(=O)[C@H](Cc2c[nH]c3ccccc23)NC(=O)[C@H](C)NC(=O)[C@@H](NC(=O)[C@H](CC(=O)O)NC(=O)[C@@H]2CCCN2C(=O)[C@@H]2CCCN2C(=O)[C@@H]2CCCN2C(=O)[C@@H]2CCCN2C(=O)[C@@H]2CCCN2C(=O)[C@@H]2CCCN2C(=O)CNC(=O)CNC(=O)[C@@H](N)CO)CSSC[C@@H](C(=O)N[C@H](C(N)=O)[C@@H](C)O)NC(=O)[C@H](Cc2c[nH]c3ccccc23)NC(=O)[C@H](C(C)C)NC(=O)[C@H](CC(C)C)NC(=O)[C@H](CCC(=O)O)NC(=O)CNC1=O` [Compound 2] (H-SGGPPPPPPDCAWHLGELVWCT-NH2; disulfide 11-21 (inferred)), the IC50 stood at 0.061 ± 0.033 µM and the “binding to the Fc region of trastuzumab (in words)” value (from here on “binding to the Fc region”) is listed as “high affinity”. In turn, `CC(C)C[C@@H]1NC(=O)[C@H](Cc2c[nH]cn2)NC(=O)[C@H](Cc2c[nH]c3ccccc23)NC(=O)[C@H](C)NC(=O)[C@@H](NC(=O)[C@@H](N)CC(=O)O)CSSC[C@@H](C(=O)N[C@H](C(N)=O)[C@@H](C)O)NC(=O)[C@H](C)NC(=O)[C@H](Cc2c[nH]c3ccccc23)NC(=O)[C@H](CC(C)C)NC(=O)[C@H](CCC(=O)O)NC(=O)CNC1=O` [Compound 13] (H-DCAWHLGELWACT-NH2; disulfide 2-12 (inferred)) showed an IC50 of 36.5 ± 15.6 µM. Take “NH2—(PEG)20—CH2CH2—CO—DCAWHLGELWACT—NH2 ([PEG20]DCAWHLGELWACT-NH2; disulfide 3-13 (inferred)) [Compound 15]”: the “binding to the Fc region” value is given as “impaired peptide binding”. With `CC(C)C[C@H](NC(=O)[C@H](Cc1c[nH]cn1)NC(=O)[C@H](Cc1c[nH]c2ccccc12)NC(=O)[C@H](C)NC(=O)[C@H](C)NC(=O)[C@H](CC(=O)O)NC(=O)CCOCCOCCOCCOCCOCCOCCOCCOCCOCCOCCOCCOCCOCCOCCOCCOCCOCCOCCOCCOCCN)C(=O)NCC(=O)N[C@@H](CCC(=O)O)C(=O)N[C@@H](CC(C)C)C(=O)N[C@H](C(=O)N[C@@H](Cc1c[nH]c2ccccc12)C(=O)N[C@@H](C)C(=O)N[C@H](C(N)=O)[C@@H](C)O)C(C)C` [Compound 16] (H-[PEG20]DAAWHLGELVWAT-NH2), the IC50 was 10.7 ± 11.9 µM and the “binding to the Fc region” value is reported as “impaired peptide binding”.
